# Tested on: 857933-349-R-J2-PDC complex spheroids, viability
# Experiment: Anticancer human tumor 857933-349-R-J2-PDC patient-derived colon adenocarcinoma cell line growth inhibition [GQUAD]
# Settings: for IC50: curve of first compound; for viability, T/C: stronger effect = lower value
# Outline: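 Tumor cells were grown as complex spheroids with HUVEC endothelial cells and mesenchymal stem cells as stroma. G-quadruplex stabilizers were combined with targeted agents over half-log dilutions from near the clinical Cmax, or from 10 microM.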
# [1] = second compound 0.0316 µM, first compound 0.0316 µM
# [2] = second compound 0.0316 µM, first compound 0.316 µM
# [3] = second compound 0.1 µM, first compound 0.0316 µM
# [4] = second compound 0.1 µM, first compound 0.316 µM
# [5] = second compound 0.316 µM, first compound 0.0316 µM
# [6] = second compound 0.316 µM, first compound 0.316 µM
# [7] = second compound 1 µM, first compound 0.0316 µM
# [8] = second compound 1 µM, first compound 0.316 µM
# [9] = second compound 3.16 µM, first compound 0.0316 µM
# [10] = second compound 3.16 µM, first compound 0.316 µM
# [11] = second compound 10 µM, first compound 0.0316 µM
# [12] = second compound 10 µM, first compound 0.316 µM
# [13] = second compound 0.0316 µM, first compound 0.1 µM
# [14] = second compound 0.0316 µM, first compound 1 µM
# [15] = second compound 0.0316 µM, first compound 3.16 µM
# [16] = second compound 0.0316 µM, first compound 10 µM
# [17] = second compound 0.1 µM, first compound 0.1 µM
# [18] = second compound 0.1 µM, first compound 1 µM
# [19] = second compound 0.1 µM, first compound 3.16 µM
# [20] = second compound 0.1 µM, first compound 10 µM
# [21] = second compound 0.316 µM, first compound 0.1 µM
# [22] = second compound 0.316 µM, first compound 1 µM
# [23] = second compound 0.316 µM, first compound 3.16 µM
# [24] = second compound 0.316 µM, first compound 10 µM
# [25] = second compound 1 µM, first compound 0.1 µM
# [26] = second compound 1 µM, first compound 1 µM
# [27] = second compound 1 µM, first compound 3.16 µM
# [28] = second compound 1 µM, first compound 10 µM
# [29] = second compound 3.16 µM, first compound 0.1 µM
# [30] = second compound 3.16 µM, first compound 1 µM
# [31] = second compound 3.16 µM, first compound 3.16 µM
# [32] = second compound 3.16 µM, first compound 10 µM
# [33] = second compound 10 µM, first compound 0.1 µM
# [34] = second compound 10 µM, first compound 1 µM
# [35] = second compound 10 µM, first compound 3.16 µM
# [36] = second compound 10 µM, first compound 10 µM
# 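Note: spheroids exposed to compounds for one week before readout.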
# 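Throughout, for viability, T/C: percent viability relative to vehicle DMSO wells taken as 100%.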
smiles,measurement,setting,value
Cc1[nH]c2ccccc2c1CCNCc1ccc(/C=C/C(=O)NO)cc1 + Cc1[nH]c2ccc(F)cc2c1-c1nc2c3cccnc3c3ncccc3c2[nH]1,IC50,second compound 0.0316 µM,> 316 nM
same,IC50,second compound 0.1 µM,> 316 nM
same,IC50,second compound 0.316 µM,> 316 nM
same,IC50,second compound 1 µM,> 316 nM
same,IC50,second compound 3.16 µM,> 316 nM
same,IC50,second compound 10 µM,> 316 nM
same,"viability, T/C","second compound 0.0316 µM, first compound 0.000999 µM",103%
same,"viability, T/C","second compound 0.0316 µM, first compound 0.00316 µM",95.8%
same,"viability, T/C","second compound 0.0316 µM, first compound 0.00999 µM",97.6%
same,"viability, T/C",[1],104%
same,"viability, T/C","second compound 0.0316 µM, first compound 0.0999 µM",94%
same,"viability, T/C",[2],59.1%
same,"viability, T/C","second compound 0.1 µM, first compound 0.000999 µM",104%
same,"viability, T/C","second compound 0.1 µM, first compound 0.00316 µM",101%
same,"viability, T/C","second compound 0.1 µM, first compound 0.00999 µM",102%
same,"viability, T/C",[3],106%
same,"viability, T/C","second compound 0.1 µM, first compound 0.0999 µM",99.7%
same,"viability, T/C",[4],60.7%
same,"viability, T/C","second compound 0.316 µM, first compound 0.000999 µM",101%
same,"viability, T/C","second compound 0.316 µM, first compound 0.00316 µM",104%
same,"viability, T/C","second compound 0.316 µM, first compound 0.00999 µM",96%
same,"viability, T/C",[5],92.8%
same,"viability, T/C","second compound 0.316 µM, first compound 0.0999 µM",107%
same,"viability, T/C",[6],59.2%
same,"viability, T/C","second compound 1 µM, first compound 0.000999 µM",109%
same,"viability, T/C","second compound 1 µM, first compound 0.00316 µM",90%
same,"viability, T/C","second compound 1 µM, first compound 0.00999 µM",93.7%
same,"viability, T/C",[7],97.7%
same,"viability, T/C","second compound 1 µM, first compound 0.0999 µM",105%
same,"viability, T/C",[8],61.4%
same,"viability, T/C","second compound 3.16 µM, first compound 0.000999 µM",90.8%
same,"viability, T/C","second compound 3.16 µM, first compound 0.00316 µM",79.8%
same,"viability, T/C","second compound 3.16 µM, first compound 0.00999 µM",86.2%
same,"viability, T/C",[9],88%
same,"viability, T/C","second compound 3.16 µM, first compound 0.0999 µM",104%
same,"viability, T/C",[10],66.8%
same,"viability, T/C","second compound 10 µM, first compound 0.000999 µM",87%
same,"viability, T/C","second compound 10 µM, first compound 0.00316 µM",89.4%
same,"viability, T/C","second compound 10 µM, first compound 0.00999 µM",88.1%
same,"viability, T/C",[11],95.3%
same,"viability, T/C","second compound 10 µM, first compound 0.0999 µM",105%
same,"viability, T/C",[12],61%
C#Cc1c(F)ccc2cc(O)cc(-c3ncc4c(N5CC6CCC(C5)N6)nc(OCC56CCCN5CC(F)C6)nc4c3F)c12 (stereo not drawn) + CN(C)c1ccc(Nc2c3ccc(NC(=O)CCN4CCCC4)cc3nc3cc(NC(=O)CCN4CCCC4)ccc23)cc1,IC50,second compound 0.0316 µM,> 10000 nM
same,IC50,second compound 0.1 µM,> 10000 nM
same,IC50,second compound 0.316 µM,> 10000 nM
same,IC50,second compound 1 µM,> 10000 nM
same,IC50,second compound 3.16 µM,> 10000 nM
same,IC50,second compound 10 µM,> 10000 nM
same,"viability, T/C",[1],111%
same,"viability, T/C",[13],96.2%
same,"viability, T/C",[2],98.1%
same,"viability, T/C",[14],96.8%
same,"viability, T/C",[15],102%
same,"viability, T/C",[16],90.3%
same,"viability, T/C",[3],104%
same,"viability, T/C",[17],104%
same,"viability, T/C",[4],96.1%
same,"viability, T/C",[18],101%
same,"viability, T/C",[19],94.3%
same,"viability, T/C",[20],94.6%
same,"viability, T/C",[5],99.1%
same,"viability, T/C",[21],97%
same,"viability, T/C",[6],95.5%
same,"viability, T/C",[22],92%
same,"viability, T/C",[23],96.2%
same,"viability, T/C",[24],87%
same,"viability, T/C",[7],97.1%
same,"viability, T/C",[25],88.7%
same,"viability, T/C",[8],91.3%
same,"viability, T/C",[26],77.8%
same,"viability, T/C",[27],91.4%
same,"viability, T/C",[28],80.3%
same,"viability, T/C",[9],81.6%
same,"viability, T/C",[29],75.1%
same,"viability, T/C",[10],80.6%
same,"viability, T/C",[30],69.7%
same,"viability, T/C",[31],78.2%
same,"viability, T/C",[32],74.7%
same,"viability, T/C",[11],67.4%
same,"viability, T/C",[33],67.5%
same,"viability, T/C",[12],63.5%
same,"viability, T/C",[34],68.8%
same,"viability, T/C",[35],71%
same,"viability, T/C",[36],58.9%
O=c1[nH]cc(F)c(=O)[nH]1 + Cc1cnc(CNC(=O)c2c(=O)c3ccc(N4CCCN(C)CC4)nc3n3c2sc2ccccc23)cn1,IC50,second compound 0.0316 µM,1500 nM
same,IC50,second compound 0.1 µM,859 nM
same,IC50,second compound 0.316 µM,< 31.6 nM
same,IC50,second compound 1 µM,< 31.6 nM
same,IC50,second compound 3.16 µM,< 31.6 nM
same,IC50,second compound 10 µM,< 31.6 nM
same,"viability, T/C",[1],95%
same,"viability, T/C",[13],95.9%
same,"viability, T/C",[2],87.3%
same,"viability, T/C",[14],60.8%
same,"viability, T/C",[15],30%
same,"viability, T/C",[16],18.9%
same,"viability, T/C",[3],72.2%
same,"viability, T/C",[17],84.7%
same,"viability, T/C",[4],64.8%
same,"viability, T/C",[18],47%
same,"viability, T/C",[19],26.3%
same,"viability, T/C",[20],13.6%
same,"viability, T/C",[5],25.4%
same,"viability, T/C",[21],29.3%
same,"viability, T/C",[6],22.8%
same,"viability, T/C",[22],15.7%
same,"viability, T/C",[23],11%
same,"viability, T/C",[24],5.17%
same,"viability, T/C",[7],5.21%
same,"viability, T/C",[25],5.61%
same,"viability, T/C",[8],4.05%
same,"viability, T/C",[26],4.64%
same,"viability, T/C",[27],4.34%
same,"viability, T/C",[28],3.5%
same,"viability, T/C",[9],2.29%
same,"viability, T/C",[29],3.17%
same,"viability, T/C",[10],3.1%
same,"viability, T/C",[30],2.6%
same,"viability, T/C",[31],3.16%
same,"viability, T/C",[32],3.13%
same,"viability, T/C",[11],1.93%
same,"viability, T/C",[33],2.51%
same,"viability, T/C",[12],2.25%
same,"viability, T/C",[34],1.52%
same,"viability, T/C",[35],2.21%
same,"viability, T/C",[36],1.32%
COc1ncnc(C2CC2)c1-c1ncc2cnn(Cc3ccc(-c4nc(C(F)(F)F)cn4C(C)C)cc3)c2n1 + CN(C)c1ccc(Nc2c3ccc(NC(=O)CCN4CCCC4)cc3nc3cc(NC(=O)CCN4CCCC4)ccc23)cc1,IC50,second compound 0.0316 µM,> 10000 nM
same,IC50,second compound 0.1 µM,> 10000 nM
same,IC50,second compound 0.316 µM,> 10000 nM
same,IC50,second compound 1 µM,> 10000 nM
same,IC50,second compound 3.16 µM,> 10000 nM
same,IC50,second compound 10 µM,> 10000 nM
same,"viability, T/C",[1],106%
same,"viability, T/C",[13],99.8%
same,"viability, T/C",[2],102%
same,"viability, T/C",[14],101%
same,"viability, T/C",[15],104%
same,"viability, T/C",[16],104%
same,"viability, T/C",[3],99.9%
same,"viability, T/C",[17],103%
same,"viability, T/C",[4],102%
same,"viability, T/C",[18],101%
same,"viability, T/C",[19],105%
same,"viability, T/C",[20],109%
same,"viability, T/C",[5],104%
same,"viability, T/C",[21],104%
same,"viability, T/C",[6],97.3%
same,"viability, T/C",[22],90.8%
same,"viability, T/C",[23],104%
same,"viability, T/C",[24],99.2%
same,"viability, T/C",[7],97.7%
same,"viability, T/C",[25],88.5%
same,"viability, T/C",[8],94.6%
same,"viability, T/C",[26],92.7%
same,"viability, T/C",[27],90.7%
same,"viability, T/C",[28],87.6%
same,"viability, T/C",[9],83.9%
same,"viability, T/C",[29],77.7%
same,"viability, T/C",[10],82.5%
same,"viability, T/C",[30],74.2%
same,"viability, T/C",[31],79.6%
same,"viability, T/C",[32],67.3%
same,"viability, T/C",[11],64.6%
same,"viability, T/C",[33],63.1%
same,"viability, T/C",[12],66.2%
same,"viability, T/C",[34],61.6%
same,"viability, T/C",[35],56.5%
same,"viability, T/C",[36],52.2%

# From PubChem BioAssay AID2060491 (Molecular Pharmacology Branch, DTP, NCI, 2025)
